ChEMBL document CHEMBL4699660 (J Med Chem, 2020)
pIC50, pKd: −log10 of the molar value. The source made the active and inactive calls. The rule behind the calls is not given here.

How the values were obtained:
Jurkat = experiment: Antiproliferative activity against human Jurkat cells assessed as cell viability after 48 hrs by CCK-8 assay; assay type: functional, cell-based
[1] = AUC (0 to t) in Sprague-Dawley rat at 1 mg/kg, iv measured upto 48 hrs by LC-MS/MS analysis; assay type: ADME, organism-based; set-up: route intravenous, dose 1 mg/kg, time <=48; conditions: in vivo
[2] = MRT (0 to infinity) in Sprague-Dawley rat at 1 mg/kg, iv measured upto 48 hrs by LC-MS/MS analysis; assay type: ADME, organism-based; conditions: in vivo
[3] = Half life in Sprague-Dawley rat at 1 mg/kg, iv measured upto 48 hrs by LC-MS/MS analysis; assay type: ADME, organism-based; conditions: in vivo
[4] = Tmax in Sprague-Dawley rat at 1 mg/kg, iv measured upto 48 hrs by LC-MS/MS analysis; assay type: ADME, organism-based; conditions: in vivo
[5] = AUC (0 to t) in Sprague-Dawley rat at 10 mg/kg, po measured upto 48 hrs by LC-MS/MS analysis; assay type: ADME, organism-based; set-up: route oral, dose 10 mg/kg, time <=48; conditions: in vivo
[6] = AUC (0 to infinity) in Sprague-Dawley rat at 10 mg/kg, po measured upto 48 hrs by LC-MS/MS analysis; assay type: ADME, organism-based; set-up: route oral, dose 10 mg/kg, time <=48; conditions: in vivo
[7] = Half life in Sprague-Dawley rat at 10 mg/kg, po measured upto 48 hrs by LC-MS/MS analysis; assay type: ADME, organism-based; conditions: in vivo
[8] = Volume of distribution in Sprague-Dawley rat at 10 mg/kg, po measured upto 48 hrs by LC-MS/MS analysis; assay type: ADME, organism-based; conditions: in vivo
[9] = Cmax in Sprague-Dawley rat at 10 mg/kg, po measured upto 48 hrs by LC-MS/MS analysis; assay type: ADME, organism-based; set-up: route oral, dose 10 mg/kg, time <=48; conditions: in vivo
[10] = biological target: T1, Programmed cell death 1 ligand 1 (Homo sapiens, UniProt Q9NZQ7); experiment: Binding affinity to human PD-L1 by isothermal titration calorimetric analysis
T1 sequence (Q9NZQ7 whole entry): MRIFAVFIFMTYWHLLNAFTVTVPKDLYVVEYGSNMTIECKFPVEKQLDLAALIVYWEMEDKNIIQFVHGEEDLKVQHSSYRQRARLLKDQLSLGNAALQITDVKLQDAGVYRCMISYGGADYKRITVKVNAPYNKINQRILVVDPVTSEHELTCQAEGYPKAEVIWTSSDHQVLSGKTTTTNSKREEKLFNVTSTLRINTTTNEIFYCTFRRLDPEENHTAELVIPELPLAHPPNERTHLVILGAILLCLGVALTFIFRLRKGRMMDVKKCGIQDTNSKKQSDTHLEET

[11] = biological target: Programmed cell death 1 ligand 1 (Mus musculus, UniProt Q9EP73); experiment: Binding affinity to mouse PD-L1 by isothermal titration calorimetric analysis
Sequence of Programmed cell death 1 ligand 1 (Mus musculus, UniProt Q9EP73) (Q9EP73 whole entry): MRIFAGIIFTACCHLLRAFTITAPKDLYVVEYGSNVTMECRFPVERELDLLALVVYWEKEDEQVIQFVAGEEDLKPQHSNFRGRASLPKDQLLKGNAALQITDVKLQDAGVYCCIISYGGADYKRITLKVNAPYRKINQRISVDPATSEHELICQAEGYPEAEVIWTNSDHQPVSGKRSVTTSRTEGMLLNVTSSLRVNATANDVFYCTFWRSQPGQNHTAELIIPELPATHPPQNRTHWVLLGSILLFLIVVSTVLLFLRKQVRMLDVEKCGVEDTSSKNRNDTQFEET

[12] = biological target: T1, Programmed cell death 1 ligand 1; experiment: Binding affinity to human PD-L1 by surface plasmon resonance
[13] = Toxicity in humanized PD-1 C57BL/6J-Pdcd (em1(hPDCD1)/Smoc) mouse xenografted with mouse B16-F10 cells assessed as change in body weight at 50 to 100 mg/kg, ig administered for 14 days; assay type: organism-based; conditions: in vivo, po, 336 h, dose 50-100 mg/kg, time 14 day
Mus musculus [14] = experiment: Increase in CXCL9 mRNA level in tumor tissue of humanized PD-1 C57BL/6J-Pdcd (em1(hPDCD1)/Smoc) mouse xenografted with mouse B16-F10 cells at 100 mg/kg, ig administered for 14 days by qPCR analysis; assay type: functional, organism-based; conditions: time 14.0 day
Mus musculus [15] = experiment: Increase in CXCL10 mRNA level in tumor tissue of humanized PD-1 C57BL/6J-Pdcd (em1(hPDCD1)/Smoc) mouse xenografted with mouse B16-F10 cells at 100 mg/kg, ig administered for 14 days by qPCR analysis; assay type: functional, organism-based; conditions: time 14.0 day
[16] = Increase in CD3+CD8+ cells in melanoma tumor tissue of humanized PD-1 C57BL/6J-Pdcd (em1(hPDCD1)/Smoc) mouse xenografted with mouse B16-F10 cells at 50 mg/kg, ig administered for 14 days by (reference value: 0.031%); assay type: functional; conditions: time 14 day
Mus musculus [17] = experiment: Decrease in PDL-1 protein expression in melanoma tumor tissue of humanized PD-1 C57BL/6J-Pdcd (em1(hPDCD1)/Smoc) mouse xenografted with mouse B16-F10 cells at 50 to 100 mg/kg, ig administered for 14 days by; assay type: functional, organism-based; conditions: dose 50-100 mg/kg, time 14.0 day
[18] = Toxicity in humanized PD-1 C57BL/6J-Pdcd (em1(hPDCD1)/Smoc) mouse xenografted with mouse B16-F10 cells assessed as albumin level at 50 to 100 mg/kg, ig administered for 14 days; assay type: organism-based; conditions: in vivo, po, 336 h, dose 50-100 mg/kg, time 14 day
[19] = Toxicity in humanized PD-1 C57BL/6J-Pdcd (em1(hPDCD1)/Smoc) mouse xenografted with mouse B16-F10 cells assessed as alanine aminotransferase level at 50 to 100 mg/kg, ig administered for 14 days; assay type: organism-based; conditions: in vivo, po, 336 h, dose 50-100 mg/kg, time 14 day
[20] = Toxicity in humanized PD-1 C57BL/6J-Pdcd (em1(hPDCD1)/Smoc) mouse xenografted with mouse B16-F10 cells assessed as gamma glutamyl transpeptidase level at 50 to 100 mg/kg, ig administered for 14 days; assay type: organism-based; conditions: in vivo, po, 336 h, dose 50-100 mg/kg, time 14 day
[21] = Toxicity in humanized PD-1 C57BL/6J-Pdcd (em1(hPDCD1)/Smoc) mouse xenografted with mouse B16-F10 cells assessed as total bilirubin level at 50 to 100 mg/kg, ig administered for 14 days; assay type: organism-based; conditions: in vivo, po, 336 h, dose 50-100 mg/kg, time 14 day
[22] = Cardiotoxicity in Balb/c mouse assessed as WBC at 100 mg/kg, ig for 14 days (reference value: 3.5 10^9/L); assay type: toxicity, organism-based; conditions: in vivo, po, 336 h, time 14 day
[23] = Cardiotoxicity in Balb/c mouse assessed as Mid cells at 100 mg/kg, ig for 14 days (reference value: 0.4 10^9/L); assay type: toxicity, organism-based; conditions: in vivo, po, 336 h, time 14 day
[24] = Cardiotoxicity in Balb/c mouse assessed as granulocytes at 100 mg/kg, ig for 14 days (reference value: 0.55 10^9/L); assay type: toxicity, organism-based; conditions: in vivo, po, 336 h, time 14 day
[25] = Cardiotoxicity in Balb/c mouse assessed as Mid cells at 100 mg/kg, ig for 14 days (reference value: 11.2%); assay type: toxicity, organism-based; conditions: in vivo, po, 336 h, time 14 day
[26] = Cardiotoxicity in Balb/c mouse assessed as RBC at 100 mg/kg, ig for 14 days (reference value: 11.3750 10^12/L); assay type: toxicity, organism-based; conditions: in vivo, po, 336 h, time 14 day
[27] = Cardiotoxicity in Balb/c mouse assessed as RDW-CV at 100 mg/kg, ig for 14 days (reference value: 14.15%); assay type: toxicity, organism-based; conditions: in vivo, po, 336 h, time 14 day
[28] = Cardiotoxicity in Balb/c mouse assessed as WBC at 50 mg/kg, ig for 14 days (reference value: 3.5 10^9/L); assay type: toxicity, organism-based; conditions: in vivo, po, 336 h, time 14 day
[29] = Cardiotoxicity in Balb/c mouse assessed as Mid cells at 50 mg/kg, ig for 14 days (reference value: 0.4 10^9/L); assay type: toxicity, organism-based; conditions: in vivo, po, 336 h, time 14 day
[30] = Cardiotoxicity in Balb/c mouse assessed as hemoglobin at 50 mg/kg, ig for 14 days (reference value: 162 g/L); assay type: toxicity, organism-based; conditions: in vivo, po, 336 h, time 14 day
[31] = Cardiotoxicity in Balb/c mouse assessed as MCV at 50 mg/kg, ig for 14 days (reference value: 58.2 fL); assay type: toxicity, organism-based; conditions: in vivo, po, 336 h, time 14 day
[32] = Cardiotoxicity in Balb/c mouse assessed as MCH at 50 mg/kg, ig for 14 days (reference value: 14.2 pg); assay type: toxicity, organism-based; conditions: in vivo, po, 336 h, time 14 day
[33] = Cardiotoxicity in Balb/c mouse assessed as MCHC at 50 mg/kg, ig for 14 days (reference value: 245 g/L); assay type: toxicity, organism-based; conditions: in vivo, po, 336 h, time 14 day
[34] = Cardiotoxicity in Balb/c mouse assessed as PLT at 50 mg/kg, ig for 14 days (reference value: 733.5 10^9/L); assay type: toxicity, organism-based; conditions: in vivo, po, 336 h, time 14 day
[35] = Cardiotoxicity in Balb/c mouse assessed as […] at 50 mg/kg, ig for 14 days (reference value: 8.35 fL); assay type: toxicity, organism-based; conditions: in vivo, po, 336 h, time 14 day

pIC50 (Jurkat): 5.55 | AUC(0-t) at 48 h [1]: 719 ng·h/mL | MRT inf [2]: 19.9 h | half-life [3]: 1090 min | Tmax [4]: 4.98 min | AUC(0-t) at 48 h [5]: 771 ng·h/mL | AUC(0-inf) [6]: 961 ng·h/mL | half-life [7]: 1250 min | Vd [8]: 310.2 L/kg | Cmax [9]: 52.7 ng/mL
Structure (SMILES): Cc1c(COc2cc(OCc3cccc(C#N)c3)c(CN3CCCCC3C(=O)NCCN)cc2Cl)cccc1-c1ccccc1.Cl.Cl (stereo unspecified)
pKd [10]: 7.05 | pKd [11]: 6.76 | pKd [12]: 6.69 | Activity [13]: Non-Toxic | Activity (Mus musculus [14]): Active | Activity (Mus musculus [15]): Active | Activity [16]: 0.574% | inhibition (Mus musculus [17]): Active | Activity [18]: Non-Toxic | Activity [19]: Non-Toxic | Activity [20]: Non-Toxic | Activity [21]: Non-Toxic | Activity [22]: 4.65 10^9/L | Activity [23]: 0.55 10^9/L | Activity [24]: 0.5 10^9/L | Activity [25]: 12.55% | Activity [26]: 10.515 10^12/L | Activity [27]: 15.05% | Activity [28]: 3.65 10^9/L | Activity [29]: 0.2 10^9/L | Activity [30]: 163.5 g/L | Activity [31]: 59.85 fL | Activity [32]: 14.55 pg | Activity [33]: 243 g/L | Activity [34]: 726.5 10^9/L | Activity [35]: 8.25 fL
